Laboratory results published in patent US8691943B2, “Antimicrobial activity of chicken NK-2 peptide against apicomplexan protozoa” (priority 2011, dated 2014).
Where no end group is shown, it is not given here.

How the values were obtained:
[1] = system: E. acervulina sporozoites; assay: Eimeria acervulina sporozoite viability by trypan blue exclusion; type: cell-based; details: for effect on E. acervulina sporozoites viability: peptide 1 μM to 10 μM, 1 h, 3 h, 6 h at 41° C.
Method: FIG. 1 depicts the cytotoxic activity of chicken NK-lysin peptides for Eimeria acervulina sporozoites. E. acervulina sporozoites (2×10^6/ml) were incubated with control medium (HBSS) and 4 kinds of NK-lysin peptides (50 ug/ml, 100 ug/ml) for 3 h at 41° C. Sporozoite viability was assessed by trypan blue exclusion. Experiments were done in triplicate and considered significant at P<0.01.
For investigating the kinetics of NK-lysin peptides, E. acervulina sporozoites (1.5×10^6/ml) were incubated with NK-lysin-transfected COS7 cell supernatant (1:1 dilution) and various concentrations of melittin, cNK-2 or cNK-4 for 1 h, 3 h and 6 h at 41° C.; sporozoite viability was assessed by trypan blue exclusion. Experiments were performed in triplicate.
E. acervulina sporozoites were obtained by excystation of sporulated oocysts (Dulski and Turner. 1988. Avian Dis. 32:235-239). After breaking the oocyst membrane with 0.5 mm glass beads by Mini-beadbeater (BioSpec Products Inc., Bartlesville, Okla.), sporocysts were purified by isopycnic centrifugation on a Percoll gradient, washed in cold PBS, then treated with excystation solution (0.25% trypsin, 0.014 M taurocholic acid) for 30 min at 41° C. to release sporozoites. Excystation fluid was filtered and the sporozoites were washed 3 times with cold HBSS at 3,000 rpm for 10 min at 4° C. and resuspended to 1.0×10^6/ml in HBSS or 10% RPMI-1640 medium (Sigma) (Hong et al. 2008, supra). The sporozoites were incubated for 1 h, 3 h or 6 h at 41° C. with NK-lysin-transfected COS7 cell supernatants, melittin or synthetic chicken NK-lysin peptides, stained with trypan blue, and viable sporozoites were counted microscopically.
To compare the effect of four kinds of chicken NK-lysin peptides on Eimeria acervulina sporozoites, Eimeria sporozoites were incubated in 50 μg/ml and 100 ug/ml of each peptide for 3 h at 41° C., respectively. The HBSS was used as a control. […] In contrast, other peptides or control didn't kill Eimeria sporozoites (FIG. 1).
We next investigated the cytolytic activity of cNK-2 lytic peptide at increasing concentrations from 1 μM to 10 μM (FIG. 2). Melittin was used as a positive control to gain peptide-induced lysis in the absence of a phospholipid preference (Dempsey, C. E. 1990. Biochim. Biophys. Acta 1031:143-161).

E. tenella = assay: Membrane permeabilization in E. tenella (data not shown); type: cell-based, Eimeria tenella
E. maxima = assay: Membrane permeabilization in E. maxima (data not shown); type: cell-based, Eimeria maxima
N. caninum tachyzoites = assay: Neospora caninum tachyzoite viability by trypan blue exclusion; type: cell-based; details: 41° C.; for tachyzoites killed: 1 h incubation; for tachyzoites killing: 3 h incubation
Method: FIG. 3 depicts the dose- and time-dependant effects of chicken cNK-2 peptide on Neospora caninum tachyzoites. For investigating kinetics of NK-lysin peptides, N. caninum tachyzoites (1.0×10^7/ml) were incubated with medium (control) and two different concentrations (5 uM and 10 uM) of cNK-2 for 1 h and 3 h at 41° C.; tachyzoite viability was assessed by trypan blue exclusion. Experiments were performed in triplicate. RPMI medium alone served as the negative control. Data were expressed as means±SEM. Differences were considered statistically significant at P<0.05 by the Duncan's multiple range test.
N. caninum tachyzoites were prepared as described with modifications (Tuo et al. 2005. Infect. Immun. 73:5093-5100). N. caninum (NC-1 isolate) tachyzoites were cultured on bovine monocytes (Lindsay and Dubey. 1989. J. Parasitol. 75:163-165) in RPMI 1640 medium supplemented with 2% fetal calf serum and 50 μg/ml gentamicin at 37° C. in a 95% air and 5% CO2 atmosphere. N. caninum tachyzoite-infected host cells were collected, passed through 20- and 27-gauge needles, and pelleted by centrifugation at 1,000×g for 20 min at 4° C. Tachyzoites were then purified by centrifugation over a 40% Percoll gradient at 2,000×g for 30 min at 4° C. The tachyzoite pellet was then resuspended in PBS (pH 7.4) and washed three times. Finally tachyzoites were resuspended to 5.0×10^6/ml in 10% RPMI-1640 medium (Sigma). The tachyzoites were incubated for 1 h or 3 h at 41° C. with synthetic chicken NK-lysin peptides (5 μM and 10 μM), stained with trypan blue, and viable tachyzoites were counted microscopically.

E. acervulina oocysts = assay: In ovo plus intraperitoneal administration, protection against live oral E. acervulina challenge; type: in vivo, chickens
Method: FIGS. 6A and 6B depict the effect of cNK-2 treatment on body weight gains of birds infected with E. acervulina. At 1 day post-hatch, the chickens were infected with 500 sporulated oocysts of E. acervulina. Body weights were assessed at 5 days (FIG. 6A) and 10 days (FIG. 6B) post-infection. […] Each bar represents the mean±SEM values.
FIG. 7 depicts the effect of cNK-2 treatment on fecal oocyst shedding after oral challenge infection with live E. acervulina. At 1 day post-hatch, chickens were infected with 500 sporulated oocysts of E. acervulina and fecal oocysts were measured starting from day 5 to day 10 post-infection. Each bar represents the mean±SEM values.
For protection studies, broiler eggs at the 18-day-old embryo stage were allocated into 4 groups of 12 eggs each. An in ovo injector was used to inoculate eggs. The two control groups (Groups 1 and 2) received no NK lysin peptide and were mock inoculated with Hanks Balanced Salt Solution (HBSS) only. Two groups were inoculated with an in ova injection of cNK-2 peptide (ARS005-1; RD-27) at doses of 1 μg/embryo (Group 3) or 5 μg/embryo (Group 4). Three days later, birds were hatched and moved to brooder petersime units. Birds of Groups 3 and 4 were given a second injection with cNK-2 peptide at doses of 1 μg/bird and 5 μg/bird, respectively, using an intraperitoneal route as shown in Table 2. Birds that had been injected in ova with HBSS alone were not given an additional intraperitoneal injection (Table 2).
At one day post hatch, the birds from Groups 2, 3 and 4 were challenged orally with 500 sporulated, live Eimeria acervulina oocysts. Body weights were measured at 1 day post hatch, i.e., on the day of challenge (coccidia infection), at 5 days (FIG. 6A) and at 10 days (FIG. 6B) post-infection.
The effect of cNK-2 peptide on fecal oocyst shedding was also determined. […] Oocysts were collected between 5 and 10 days post infection and the number were counted using an established method (FIG. 7).

E. coli strain BMH71-18 = assay: Bactericidal activity, broth microdilution assay (OD600); type: cell-based; details: peptides 0-40 μg/ml, 18 h
Method: Ampicillin (0-20 μg/ml), chicken NK-lysin peptides (0-40 μg/ml), or LB broth alone were added to cultures of the bacteria and incubated for 18 h at […]. Bacterial growth was determined by measuring OD600. X axis: Ampicillin concentrations.
To evaluate the bactericidal activity of NK-lysin peptides, the minimum inhibitory concentration (MIC) values of the purified recombinant protein against E. coil strain BMH71-18 were determined using a standardized broth microdilution assay. Ampicillin MIC values against the bacteria were determined in parallel as positive controls. The assays were performed in accordance with Clinical and Laboratory Standards Institute (CLSI; Formerly National Committee for Clinical Laboratory Standards [NCCLS]) guidelines (NCCLS. 1999. In: Methods for Determining Bacterial Activity of Antimicrobial Agents, NCCLC, Wayne, Pa.; NCCLS. 2002. In: Performance Standards for Antimicrobial Disk and Dilution Susceptibility Tests for Bacteria isolated from Animals; Approved Standard, 2nd ed. NCCLS, Wayne, Pa.). […] The wells were incubated for 18 h at 37° C. with ambient air circulation and without shaking, and the optical density (OD) of each well was measured on a Synergy HT™ multi-modal plate reader (Bio-Tec Instruments, Winooski, Vt.) at 600 nm. Background values, derived from non-inoculated wells containing broth alone, were subtracted from all readings.

C. parvum sporozoites = assay: Cryptosporidum parvum sporozoite viability by two-component fluorescent dye exclusion assay; type: cell-based; details: 0.017, 0.17, 17 and 170 μg/ml; 2 hrs incubation; P<0.01 at 170 μg/ml, P<0.05 at the others
Method: FIG. 4 depicts the effect of NK lysine on Cryptosporidum parvum sporozoites. Freshly prepared C. parvum sporozoites were incubated with different doses of cNK-2 for […] and Cryptosporidia sporozoite viability was measured by a two-component fluorescent dye exclusion assay (LIVE/DEAD Reduced Biohazard Viability/Cytotoxicity Kits, Molecular Probes L-7013). The result is presented as the means plus standard deviations. Statistical analysis was performed by the paired t-test with the Statcel2 software. The level of significance was set at a P value of <0.05.
C. parvum sporozoites were prepared as described with modifications (Riggs and Perryman. 1987. Infect. Immun. 55:2081-2087). The C. parvum sporozoites were incubated with various concentrations of cNK-2 peptides or BSA and viability was assessed after 2 hrs of incubation. Viability of the sporozoites was measured by a two-component fluorescent dye exclusion assay (LIVE/DEAD Reduced Biohazard Viability/Cytotoxicity Kits, Molecular Probes L-7013). Results are presented as the means plus standard deviations. […] Statistical analysis was performed with the Statcel2 software.

Row | Molecule | cytolytic effect on E. acervulina sporozoites ([1]; melittin positive control at 2.5 μM and 5 μM) | membrane permeabilization (E. tenella) | membrane permeabilization (E. maxima) | killing of E. acervulina sporozoites (viability, trypan blue) ([1]; 50 μg/ml or 100 μg/ml peptide, 3 h at 41° C., HBSS control, P<0.01) | effect on E. acervulina sporozoites viability [1] | tachyzoites killed (N. caninum tachyzoites; 5 uM) | tachyzoites killing (N. caninum tachyzoites; 5 uM) [%] | tachyzoites killed (N. caninum tachyzoites; 10 uM) [%] | tachyzoites killing (N. caninum tachyzoites; 10 uM) [%] | body weights of infected birds compared with HBSS control birds (E. acervulina oocysts; 1 μg and 5 μg in ovo then intraperitoneal, 5 and 10 days post-infection, 500 oocysts, P<0.05) | fecal oocyst shedding (E. acervulina oocysts; dose of at least 5 μg, oocysts collected 5 to 10 days post infection, P<0.05) | protective effect against live oral challenge infection (E. acervulina oocysts; in ovo injections followed by intraperitoneal injections, 500 E. acervulina oocysts) | antimicrobial activity against bacterial growth (E. coli strain BMH71-18) | viability of C. parvum sporozoites (C. parvum sporozoites)
1 | CC[C@H](C)[C@H](NC(=O)CN)C(=O)NCC(=O)N[C@@H](C)C(=O)N[C@H](C(=O)N[C@@H](CC(C)C)C(=O)N[C@@H](CCCCN)C(=O)N[C@H](C(=O)N[C@@H](CC(C)C)C(=O)N[C@H](C(=O)N[C@H](C(=O)NCC(=O)N[C@@H](CC(C)C)C(=O)N1CCC[C@H]1C(=O)N[C@@H](C)C(=O)N[C@@H](CC(C)C)C(=O)N[C@H](C(=O)N[C@@H](CO)C(=O)N[C@@H](Cc1c[nH]c2ccccc12)C(=O)N[C@H](C(=O)N[C@@H](CCCCN)C(=O)N[C@@H](CCCNC(=N)N)C(=O)N[C@@H](CCCCN)C(=O)N[C@@H](CCCNC(=N)N)C(=O)N[C@@H](CCC(N)=O)C(=O)N[C@@H](CCC(N)=O)C(N)=O)[C@@H](C)CC)[C@@H](C)CC)[C@@H](C)O)[C@@H](C)O)C(C)C)C(C)C [Melittin, reference compound] | total disruption of the cellular membrane |  |  |  |  |  |  |  |  |  |  |  |  | 
2 | RRQRSICKQLLKKLRQQLSDALQNNDD-NH2 [cNK-2] |  | caused membrane permeabilization | caused membrane permeabilization | significantly killed | time- and dose-dependent effect | about 46% | 71 | ~60 | 86 | significantly higher body weights | significant reduction of fecal oocyst shedding | significant protective effect | Neither chicken NK-lysin nor the NK-lysin peptides, cNK-2 and cNK-4, demonstrated antimicrobial activity | significant decreases in the viability
3 | cNK-4: synthetic chicken NK-lysin peptide (88-117), AINNALNKVCSTGRRQRSICKQLLKKLRQQ, SEQ ID NO. 4 (listed as Gallus gallus) |  |  |  |  | no effect |  |  |  |  |  |  |  | Neither chicken NK-lysin nor the NK-lysin peptides, cNK-2 and cNK-4, demonstrated antimicrobial activity | 
